Values of other authors as cited in patent US11497760B2, “Method for solubilizing poorly water-soluble dietary supplements and pharmaceutically active agents” (ATHENION AG, priority 2016, dated 2022).

Key:
[1] = target: P-glycoprotein (Homo sapiens, UniProt P08183)
[2] = target: human CYP3A4 (Homo sapiens, UniProt P08684)
Chain of human CYP3A4 (P08684 whole entry): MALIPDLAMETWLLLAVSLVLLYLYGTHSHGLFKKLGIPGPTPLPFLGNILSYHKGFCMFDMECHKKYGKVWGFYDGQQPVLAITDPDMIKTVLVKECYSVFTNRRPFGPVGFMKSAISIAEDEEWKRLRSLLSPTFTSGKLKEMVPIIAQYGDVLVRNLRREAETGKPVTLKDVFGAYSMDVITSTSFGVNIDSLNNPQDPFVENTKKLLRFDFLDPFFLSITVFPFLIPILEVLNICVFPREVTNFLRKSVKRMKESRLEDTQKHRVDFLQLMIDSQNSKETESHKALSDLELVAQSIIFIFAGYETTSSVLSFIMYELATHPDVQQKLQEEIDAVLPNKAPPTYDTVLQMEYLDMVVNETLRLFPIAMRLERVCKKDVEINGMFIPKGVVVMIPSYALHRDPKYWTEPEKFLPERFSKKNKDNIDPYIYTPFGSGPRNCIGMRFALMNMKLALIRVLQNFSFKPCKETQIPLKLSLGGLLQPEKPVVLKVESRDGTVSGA

Chain of P-glycoprotein (P08183 whole entry): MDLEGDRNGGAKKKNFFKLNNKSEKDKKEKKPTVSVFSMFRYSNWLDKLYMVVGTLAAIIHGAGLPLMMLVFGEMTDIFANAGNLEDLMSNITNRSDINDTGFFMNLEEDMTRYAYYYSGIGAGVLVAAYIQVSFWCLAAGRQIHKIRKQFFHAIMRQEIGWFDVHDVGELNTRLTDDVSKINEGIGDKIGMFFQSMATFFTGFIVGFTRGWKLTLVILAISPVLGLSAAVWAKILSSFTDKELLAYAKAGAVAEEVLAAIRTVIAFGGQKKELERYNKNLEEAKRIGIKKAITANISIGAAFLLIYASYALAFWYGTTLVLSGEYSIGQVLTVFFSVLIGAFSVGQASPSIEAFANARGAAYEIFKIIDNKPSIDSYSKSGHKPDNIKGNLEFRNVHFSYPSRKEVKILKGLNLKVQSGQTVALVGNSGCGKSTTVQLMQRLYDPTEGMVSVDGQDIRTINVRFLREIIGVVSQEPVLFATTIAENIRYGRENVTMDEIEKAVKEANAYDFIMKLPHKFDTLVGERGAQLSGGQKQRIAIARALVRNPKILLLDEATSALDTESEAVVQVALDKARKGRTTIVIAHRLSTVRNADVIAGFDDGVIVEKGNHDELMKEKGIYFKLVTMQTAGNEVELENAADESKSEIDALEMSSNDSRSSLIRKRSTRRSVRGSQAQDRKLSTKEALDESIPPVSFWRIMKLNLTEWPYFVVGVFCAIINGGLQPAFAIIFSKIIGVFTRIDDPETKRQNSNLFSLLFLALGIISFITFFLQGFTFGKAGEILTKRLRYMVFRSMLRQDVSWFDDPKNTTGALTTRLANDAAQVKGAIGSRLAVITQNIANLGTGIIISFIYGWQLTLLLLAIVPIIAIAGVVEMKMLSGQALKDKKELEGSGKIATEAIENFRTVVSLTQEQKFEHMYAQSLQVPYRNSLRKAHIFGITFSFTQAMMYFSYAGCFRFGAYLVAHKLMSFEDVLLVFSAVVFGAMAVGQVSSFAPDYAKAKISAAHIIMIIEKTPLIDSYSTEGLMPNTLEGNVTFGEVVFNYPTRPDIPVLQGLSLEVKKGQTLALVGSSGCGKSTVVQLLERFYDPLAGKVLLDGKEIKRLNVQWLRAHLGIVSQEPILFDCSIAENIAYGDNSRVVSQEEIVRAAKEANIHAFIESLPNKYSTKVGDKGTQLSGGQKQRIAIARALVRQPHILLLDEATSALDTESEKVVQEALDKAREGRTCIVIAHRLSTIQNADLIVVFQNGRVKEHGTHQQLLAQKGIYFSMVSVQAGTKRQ

inhibition of P-glycoprotein [1]: inhibit
inhibition of human CYP3A4 [2]: inhibit
SMILES: O=C(C=CC=Cc1ccc2c(c1)OCO2)N1CCCCC1 [Piperine, 1-[5-(1,3-benzodioxol-5-yl)-1-oxo-2,4-pentadienyl]piperidine]
